Assay results from patent US8163779B2, “Glucokinase activators” (Takeda San Diego, Inc., priority 2006, dated 2012).
Where a name gives a salt, the structure may show the parent alone.

These compounds were tested against T1, glucokinase (GK) (Homo sapiens, UniProt P35557) (assay: enzymatic glucokinase activity assay (ATP consumption, KinaseGlo luminescence)). Details: recombinant GK residues 12-465; 5 μM ATP, 5 mM Glucose; Kact = concentration that displays 50% of the maximal increase in GK activity; read-out: pKact.
T1 construct: I.D. No. 1 corresponds to residues 12-465 of glucokinase; made in house; host or cells: E. coli DH10b-T1r
T1 sequence (P35557 with tags, fused parts or gaps isoform P35557-2): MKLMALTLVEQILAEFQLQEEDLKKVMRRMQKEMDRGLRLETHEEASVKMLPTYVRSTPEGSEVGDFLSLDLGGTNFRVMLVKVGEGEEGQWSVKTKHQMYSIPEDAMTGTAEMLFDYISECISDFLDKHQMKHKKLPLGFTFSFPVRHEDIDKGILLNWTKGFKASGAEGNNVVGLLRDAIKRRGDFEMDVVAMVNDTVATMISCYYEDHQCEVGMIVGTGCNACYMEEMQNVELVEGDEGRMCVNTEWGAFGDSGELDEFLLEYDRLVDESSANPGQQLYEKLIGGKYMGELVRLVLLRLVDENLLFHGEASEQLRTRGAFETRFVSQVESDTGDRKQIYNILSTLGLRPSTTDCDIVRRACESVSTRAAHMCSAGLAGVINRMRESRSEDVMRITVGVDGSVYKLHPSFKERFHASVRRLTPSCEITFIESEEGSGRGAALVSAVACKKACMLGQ
Assay type: biochemical
Description: The activity of compounds as glucokinase activators may be assayed in vitro, in vivo or in a cell line. Provided below is an enzymatic glucokinase activity assay.
Purified glucokinase may be obtained as follows. […] SEQ.
The expression of recombinant glucokinase protein may be carried out by transformation and growth of DH10b-T1r E. coli cells incorporating the (pFLAG-CTC) plasmid in LB media. Protein expression can be induced in this system by the addition of IPTG to the culture medium.
Recombinant protein may be isolated from cellular extracts by passage over Sepharose Q Fast Flow resin (Pharmacia). This partially purified GK extract may then be further purified by a second passage over Poros HQ 10 (Applied Biosystems). The purity of GK may be determined on denaturing SDS-PAGE gel. Purified GK may then be concentrated to a final concentration of 20.0 mg/ml. After flash freezing in liquid nitrogen, the proteins can be stored at −78° C. in a buffer containing 25 mM TRIS-HCl pH 7.6, 50 mM NaCl, and 0.5 mM TCEP.
The activation properties of compounds for GK may be determined using a black 384-well-plate format under the following reaction conditions: 25 mM Hepes pH 7.2, 25 mM NaCl, 10 mM MgCl2, 0.01% Brij35, 1 mM DTT, 5 μM ATP, 5 mM Glucose 2% DMSO. The amount of ATP consumed may be determined quantitatively by addition of equal volume of luciferase reagent (luciferase+beetle luciferin—KinaseGlo Luminescent Kinase Assay kit from Promega). The luminescence intensity may be measured by using the Analyst HT from LJL Biosystems.
The reaction mixture may then be incubated at room temperature for 60 min, and quenched and developed by addition of 10 μL of luciferase reagent. Luminescence intensities of the resulting reaction mixtures may be measured after a 10 min incubation at room temperature. The luminescence intensity may be measured by using the Analyst HT from LJL Biosystems.
pKact values may be calculated by non-linear curve fitting of the compound concentrations and luminescence intensities to a standard inhibition/activation equation.

| SMILES | EC50 [µM] |
| --- | --- |
| Cc1cc(N2CCOCC2)cc(=O)n1[C@H](CC1CCCCC1)C(=O)Nc1nccs1 (stereo in doubt) [Example 79, 3-cyclohexyl-2-(6-methyl-4-morpholino-2-oxopyridin-1(2H)-yl)-N-(thiazol-2-yl)propanamide] | > 15.8 |
| Cc1cc(C#CCO)cc(=O)n1[C@H](CC1CCOCC1)C(=O)Nc1ncc(Cl)s1 (stereo in doubt) [Example 137, N-(5-chlorothiazol-2-yl)-2-(4-(3-hydroxyprop-1-ynyl)-6-methyl-2-oxopyridin-1(2H)-yl)-3-(tetrahydro-2H-pyran-4-yl)propanamide] | > 15.8 |
| Cc1cc(O)cc(=O)n1C(CC1CCCCC1)C(=O)Nc1nccs1 (stereo not shown) [Example 1, 3-cyclohexyl-2-(4-hydroxy-6-methyl-2-oxopyridin-1(2H)-yl)-N-(thiazol-2-yl)propanamide trifluoroacetic acid salt] | > 15.8 |
| COc1cc(C)n(C(CC2CCCCC2)C(=O)Nc2nccs2)c(=O)c1 (stereo not shown) [Example 2, 3-cyclohexyl-2-(4-methoxy-6-methyl-2-oxopyridin-1(2H)-yl)-N-(thiazol-2-yl)propanamide trifluoroacetic acid salt] | > 15.8 |
| Cc1cc(S(C)(=O)=O)cc(=O)n1C(CC1CCCCC1)C(=O)Nc1nccs1 (stereo not shown) [Example 3, 3-cyclohexyl-2-(6-methyl-4-(methylsulfonyl)-2-oxopyridin-1(2H)-yl)-N-(thiazol-2-yl)propanamide trifluoroacetic acid salt] | 1.58 to 15.8 |
| CCS(=O)(=O)c1cc(C)n(C(CC2CCCCC2)C(=O)Nc2nccs2)c(=O)c1 (stereo not shown) [Example 4, 3-cyclohexyl-2-(4-(ethylsulfonyl)-6-methyl-2-oxopyridin-1(2H)-yl)-N-(thiazol-2-yl)propanamide trifluoroacetic acid salt] | 1.58 to 15.8 |
| Cc1cc(S(=O)(=O)C2CCCC2)cc(=O)n1C(CC1CCCCC1)C(=O)Nc1nccs1 (stereo not shown) [Example 5, 3-cyclohexyl-2-(4-(cyclopentylsulfonyl)-6-methyl-2-oxopyridin-1(2H)-yl)-N-(thiazol-2-yl)propanamide trifluoroacetic acid salt] | < 1.58 |
| Cc1cc(S(=O)(=O)C2CCCC2)cc(=O)n1C(CC1CCCCC1)C(=O)Nc1ccc(C(N)=O)cn1 (stereo not shown) [Example 6, 6-(3-cyclohexyl-2-(4-(cyclopentylsulfonyl)-6-methyl-2-oxopyridin-1(2H)-yl)propanamido)nicotinamide trifluoroacetic acid salt] | < 1.58 |
| Cc1cc(S(C)(=O)=O)cc(=O)n1C(CC1CCOCC1)C(=O)Nc1nccs1 (stereo not shown) [Example 7, 2-(6-methyl-4-(methylsulfonyl)-2-oxopyridin-1(2H)-yl)-3-(tetrahydro-2H-pyran-4-yl)-N-(thiazol-2-yl)propanamide trifluoroacetic acid salt] | > 15.8 |
| O=C(Nc1nccs1)C(CC1CCCCC1)n1ccc(S(=O)(=O)C2CCCC2)cc1=O (stereo not shown) [Example 8, 3-cyclohexyl-2-(4-(cyclopentylsulfonyl)-2-oxopyridin-1(2H)-yl)-N-(thiazol-2-yl)propanamide trifluoroacetic acid salt] | < 1.58 |
| CS(=O)(=O)c1ccn(C(Cc2cc(F)ccc2Cl)C(=O)Nc2ncc(Cl)s2)c(=O)c1 (stereo not shown) [Example 9, 3-(2-chloro-5-fluorophenyl)-N-(5-chlorothiazol-2-yl)-2-(4-(methylsulfonyl)-2-oxopyridin-1(2H)-yl)propanamide] | > 15.8 |
| Cc1ccc(CC(C(=O)Nc2nccs2)n2c(C)cc(S(=O)(=O)C3CCCC3)cc2=O)cc1 (stereo not shown) [Example 10, 2-(4-(cyclopentylsulfonyl)-6-methyl-2-oxopyridin-1(2H)-yl)-N-(thiazol-2-yl)-3-p-tolylpropanamide] | > 15.8 |
| Cc1cc(S(=O)(=O)C2CCCC2)cc(=O)n1C(CC(C)C)C(=O)Nc1nccs1 (stereo not shown) [Example 11, 2-(4-(cyclopentylsulfonyl)-6-methyl-2-oxopyridin-1(2H)-yl)-4-methyl-N-(thiazol-2-yl)pentanamide] | < 1.58 |
| Cc1cc(S(=O)(=O)C2CCCC2)cc(=O)n1C(CC1CC1)C(=O)Nc1nccs1 (stereo not shown) [Example 12, 2-(4-(cyclopentylsulfonyl)-6-methyl-2-oxopyridin-1(2H)-yl)-3-cyclopropyl-N-(thiazol-2-yl)propanamide] | 1.58 to 15.8 |
| O=C(Nc1nccs1)[C@H](CC1CCCCC1)n1ccc(S(=O)(=O)C2CCCC2)cc1=O [Example 13, (S)-3-cyclohexyl-2-(4-(cyclopentylsulfonyl)-2-oxopyridin-1(2H)-yl)-N-(thiazol-2-yl)propanamide] | < 1.58 |
| Cc1cc(S(=O)(=O)C2CCCC2)cc(=O)n1C(CC1CCCC1)C(=O)Nc1nccs1 (stereo not shown) [Example 14, 3-cyclopentyl-2-(4-(cyclopentylsulfonyl)-6-methyl-2-oxopyridin-1(2H)-yl)-N-(thiazol-2-yl)propanamide] | < 1.58 |
| CS(=O)(=O)c1ccn(C(Cc2ccsc2)C(=O)Nc2ncc(Cl)s2)c(=O)c1 (stereo not shown) [Example 15, N-(5-chlorothiazol-2-yl)-2-(4-(methylsulfonyl)-2-oxopyridin-1(2H)-yl)-3-(thiophen-3-yl)propanamide] | > 15.8 |
| Cc1cc(S(=O)(=O)C2CCCC2)cc(=O)n1C(CC1CCOCC1)C(=O)Nc1nccs1 (stereo not shown) [Example 16, 2-(4-(cyclopentylsulfonyl)-6-methyl-2-oxopyridin-1(2H)-yl)-3-(tetrahydro-2H-pyran-4-yl)-N-(thiazol-2-yl)propanamide] | 1.58 to 15.8 |
| CS(=O)(=O)c1ccn(C(Cc2c(Cl)cccc2Cl)C(=O)Nc2ncc(Cl)s2)c(=O)c1 (stereo not shown) [Example 17, N-(5-chlorothiazol-2-yl)-3-(2,6-dichlorophenyl)-2-(4-(methylsulfonyl)-2-oxopyridin-1(2H)-yl)propanamide] | > 15.8 |
| CCCCC(C(=O)Nc1nccs1)n1c(C)cc(S(=O)(=O)C2CCCC2)cc1=O (stereo not shown) [Example 18, 2-(4-(cyclopentylsulfonyl)-6-methyl-2-oxopyridin-1(2H)-yl)-N-(thiazol-2-yl)hexanamide] | 1.58 to 15.8 |
| Cc1cc(S(=O)(=O)C2CCCC2)cc(=O)n1C(CCC(C)C)C(=O)Nc1nccs1 (stereo not shown) [Example 19, 2-(4-(cyclopentylsulfonyl)-6-methyl-2-oxopyridin-1(2H)-yl)-5-methyl-N-(thiazol-2-yl)hexanamide] | 1.58 to 15.8 |
| COc1cccc(CC(C(=O)Nc2nccs2)n2c(C)cc(S(=O)(=O)C3CCCC3)cc2=O)c1 (stereo not shown) [Example 20, 2-(4-(cyclopentylsulfonyl)-6-methyl-2-oxopyridin-1(2H)-yl)-3-(3-methoxyphenyl)-N-(thiazol-2-yl)propanamide] | > 15.8 |
| Cc1cc(S(=O)(=O)C2CCCC2)cc(=O)n1C(Cc1ccco1)C(=O)Nc1nccs1 (stereo not shown) [Example 21, 2-(4-(cyclopentylsulfonyl)-6-methyl-2-oxopyridin-1(2H)-yl)-3-(furan-2-yl)-N-(thiazol-2-yl)propanamide] | > 15.8 |
| CS(=O)(=O)c1ccn([C@H](CC2CCOCC2)C(=O)Nc2ncc(Cl)s2)c(=O)c1 [Example 22, (R)-N-(5-chlorothiazol-2-yl)-2-(4-(methylsulfonyl)-2-oxopyridin-1(2H)-yl)-3-(tetrahydro-2H-pyran-4-yl)propanamide] | > 15.8 |
| CS(=O)(=O)c1ccn([C@@H](CC2CCOCC2)C(=O)Nc2ncc(Cl)s2)c(=O)c1 [Example 23, (S)-N-(5-chlorothiazol-2-yl)-2-(4-(methylsulfonyl)-2-oxopyridin-1(2H)-yl)-3-(tetrahydro-2H-pyran-4-yl)propanamide] | 1.58 to 15.8 |
